Assay results as given in article PMC5463734, “Structure-guided optimization of quinoline inhibitors of Plasmodium N-myristoyltransferase” (MedChemComm, 2016).
Where “and” joins values, the source holds several entries; their conditions need not be identical. Equal entries are not always repeated. Where two headings read alike, the source gives them in different places.

Assays:
[1] = stability in phosphate buffered solutions used for enzymatic assay; assay type: physicochemical
Source text: It is well known that 2-cyanoethylthioethers can be cleaved in the presence of weak bases such as ammonia through a retro-Michael reaction.[27]

[2] = biological target: T1, recombinant P. vivax NMT (PvNMT) (Plasmodium vivax, UniProt A5K1A2); set-up: method as in PMID 22439843; conditions: recombinant enzyme; read-out: Ki app PvNMT; cited from earlier work
T1 sequence (A5K1A2 1-410): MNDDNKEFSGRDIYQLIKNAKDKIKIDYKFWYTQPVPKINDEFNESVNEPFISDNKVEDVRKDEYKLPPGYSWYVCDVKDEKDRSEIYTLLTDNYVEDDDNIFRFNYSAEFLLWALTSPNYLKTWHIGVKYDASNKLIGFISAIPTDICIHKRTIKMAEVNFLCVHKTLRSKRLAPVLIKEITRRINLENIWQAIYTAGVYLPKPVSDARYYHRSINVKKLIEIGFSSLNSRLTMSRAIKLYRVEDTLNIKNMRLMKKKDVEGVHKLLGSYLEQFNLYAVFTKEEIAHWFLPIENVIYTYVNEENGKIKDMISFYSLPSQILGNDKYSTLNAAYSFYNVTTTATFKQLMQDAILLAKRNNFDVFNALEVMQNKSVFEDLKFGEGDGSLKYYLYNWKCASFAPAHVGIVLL

[3] = biological target: T2, recombinant H. sapiens NMT isoform 1 (HsNMT1) (Homo sapiens, UniProt P30419); assay: fluorogenic 96-well plate enzymatic assay for HsNMT1 activity; assay type: biochemical; conditions: for Ki: recombinant enzyme, mean ± SD from duplicates, Ki app from IC50 by Cheng-Prusoff
T2 sequence (P30419 1-496): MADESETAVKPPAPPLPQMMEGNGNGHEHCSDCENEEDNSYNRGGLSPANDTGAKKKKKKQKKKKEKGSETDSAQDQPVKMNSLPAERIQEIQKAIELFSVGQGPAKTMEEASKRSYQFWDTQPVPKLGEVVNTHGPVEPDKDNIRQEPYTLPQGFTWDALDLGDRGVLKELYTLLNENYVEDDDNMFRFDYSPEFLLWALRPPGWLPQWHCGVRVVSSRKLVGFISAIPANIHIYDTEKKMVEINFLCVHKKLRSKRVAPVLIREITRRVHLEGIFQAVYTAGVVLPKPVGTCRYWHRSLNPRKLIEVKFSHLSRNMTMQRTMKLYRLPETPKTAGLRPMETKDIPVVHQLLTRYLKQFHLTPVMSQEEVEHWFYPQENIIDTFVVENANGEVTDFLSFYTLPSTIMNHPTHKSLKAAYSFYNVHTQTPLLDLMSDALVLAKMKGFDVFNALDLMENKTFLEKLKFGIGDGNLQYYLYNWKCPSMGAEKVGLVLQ
Protocol: (§1) Final compounds were tested using a previously described fluorogenic 96-well plate assay for PvNMT,2 PfNMT3 and […]
(§2) nonlinear regression fitting using GraFit 7.0 (Erithacus Software Ltd., U.K.). Apparent inhibition constants, Kiapp, were calculated from experimental IC50 using Cheng-Prussof equation.5

[4] = biological target: T3, recombinant P. falciparum NMT (PfNMT) (Plasmodium falciparum, UniProt Q9U419); assay: fluorogenic 96-well plate enzymatic assay for PfNMT activity; assay type: biochemical; conditions: for totally inactive on PfNMT up to: highest concentration without activity; for Ki: recombinant enzyme, mean ± SD from duplicates, Ki app from IC50 by Cheng-Prusoff
T3 sequence (Q9U419 1-410): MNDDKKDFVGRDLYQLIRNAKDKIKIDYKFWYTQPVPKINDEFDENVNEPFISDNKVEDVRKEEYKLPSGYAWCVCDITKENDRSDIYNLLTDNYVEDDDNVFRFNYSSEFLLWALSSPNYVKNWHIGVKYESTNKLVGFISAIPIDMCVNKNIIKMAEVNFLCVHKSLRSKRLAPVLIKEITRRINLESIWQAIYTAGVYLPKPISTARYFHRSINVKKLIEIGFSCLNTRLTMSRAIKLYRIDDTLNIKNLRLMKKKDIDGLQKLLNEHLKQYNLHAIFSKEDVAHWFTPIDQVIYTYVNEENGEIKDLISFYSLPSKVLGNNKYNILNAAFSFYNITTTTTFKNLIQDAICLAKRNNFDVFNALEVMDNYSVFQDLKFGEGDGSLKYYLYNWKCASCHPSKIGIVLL
Protocol: (§3) The only residue in the inhibitor-binding pocket that differs between these NMTs is Tyr334 (Pv numbering), which is replaced by a phenylalanine in PfNMT.
as §1, §2

[5] = biological target: T1, recombinant P. vivax NMT (PvNMT); assay: biochemical; assay type: biochemical; conditions: for LipE: lipophilic efficiency, LipE = –log(Ki) – clog P, based on PvNMT data; for Ki: recombinant enzyme, mean ± SD from duplicates, Ki app from IC50 by Cheng-Prusoff
Protocol: as §3, §1, §2

[6] = biological target: T4, recombinant H. sapiens NMT isoform 2 (HsNMT2) (Homo sapiens, UniProt O60551); assay: fluorogenic 96-well plate enzymatic assay for HsNMT2 activity; assay type: biochemical; conditions: for Ki: recombinant enzyme, mean ± SD from duplicates, Ki app from IC50 by Cheng-Prusoff
T4 sequence (O60551 1-498): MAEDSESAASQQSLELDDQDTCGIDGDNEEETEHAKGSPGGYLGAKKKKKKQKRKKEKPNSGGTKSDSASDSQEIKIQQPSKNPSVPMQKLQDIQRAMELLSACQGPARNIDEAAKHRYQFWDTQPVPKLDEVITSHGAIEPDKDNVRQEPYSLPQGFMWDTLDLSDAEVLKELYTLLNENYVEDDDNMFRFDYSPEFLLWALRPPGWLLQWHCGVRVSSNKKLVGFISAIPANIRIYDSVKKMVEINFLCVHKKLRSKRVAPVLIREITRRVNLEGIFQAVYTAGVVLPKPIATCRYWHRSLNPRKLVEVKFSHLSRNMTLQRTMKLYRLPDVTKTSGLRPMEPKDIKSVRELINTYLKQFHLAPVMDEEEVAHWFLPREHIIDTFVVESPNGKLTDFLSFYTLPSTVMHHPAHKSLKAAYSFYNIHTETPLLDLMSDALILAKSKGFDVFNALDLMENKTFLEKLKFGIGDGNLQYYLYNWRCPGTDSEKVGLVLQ
Protocol: as §1, §2

[7] = solubility in assay buffer; conditions: could not be evaluated

Compound | Ki [3] [nM] | Ki ([4]; read-out: Ki app PfNMT) [nM] | LipE [5] | Ki ([5]; read-out: Ki app PvNMT) [nM] | Ki [6] [nM] | other results
CCOC(=O)c1cnc2ccc(OC)cc2c1SCCC#N [Compound 1, ethyl 4-((2-cyanoethyl)thio)-6-methoxyquinoline-3-carboxylate] | – | – | – | – | – | stability in phosphate buffered solutions [1]: fully stable; Ki [2]: 4700 nM and 4740 nM
CCOC(=O)c1cnc2ccc(OCc3ccccc3)cc2c1SC(C)C [Compound 6] | 4840 ± 640 | – | – | – | > 10000 | Ki ([4]; Ki app PfNMT): 1990 ± 300 nM
CCOC(=O)c1cnc2ccc(OCc3ccccc3)cc2c1[S+]([O-])CC (stereo not drawn) [Compound 9] | 3600 ± 300 | 5650 ± 1240 | 2.46 | 1750 ± 120 | > 10000 | –
CCOC(=O)c1cnc2ccc(OCc3ccccc3)cc2c1S(=O)(=O)CC [Compound 10] | > 10000 | > 10000 | 2.34 | 1780 ± 470 | > 10000 | –
CCSc1c(C(=O)N2CCCC2)cnc2ccc(OCc3ccccc3)cc12 [Compound 15] | 1360 ± 210 | 1520 ± 290 | 1.74 | 960 ± 130 | > 10000 | –
CCSc1c(C(=O)Nc2ccccc2)cnc2ccc(OCc3ccccc3)cc12 [Compound 16] | – | – | – | – | – | solubility [7]: poorly soluble
CCSc1c(C(=O)Nc2nccs2)cnc2ccc(OCc3ccccc3)cc12 [Compound 17] | – | – | – | – | – | solubility [7]: poorly soluble
CCSc1c(C(=O)N2CCOCC2)cnc2ccc(OCc3ccccc3)cc12 [Compound 19] | – | – | – | – | 590 ± 50 | Ki ([4]; Ki app PfNMT): 330 ± 20 nM; Ki ([5]; Ki app PvNMT): 200 ± 20 nM
CCOC(=O)c1cnc2ccc(OCc3ccc(NCCN)nc3)cc2c1SCC [Compound 24] | 50 ± 10 | 1250 ± 80 | 3.57 | 280 ± 20 | 410 ± 70 | –
CCCCc1c(C)nc2ccc(OC)cc2c1SCCC#N [MRT00057965, 3-butyl-4-((2-cyanoethyl)thio)-6-methoxy-2-methylquinoline] | – | – | – | – | – | totally inactive on PfNMT up to [4]: > 100 µM

Continued, in another order:

Ki [3] [nM] | Ki ([4]; read-out: Ki app PfNMT) [nM] | LipE [5] | Ki ([5]; read-out: Ki app PvNMT) [nM] | Ki [6] [nM] | Compound | other results
> 10000 | > 10000 | 1.90 | 550 ± 60 | – | CCOC(=O)c1cnc2ccc(OCc3ccccc3)cc2c1SCCC#N [Compound 4] | totally inactive on PfNMT up to [4]: > 100 µM; fold improvement in activity compared to the original methoxy compound ([5]; 6-benzyloxy vs 6-methoxy compound 1): 8 fold
3360 ± 370 | 1100 ± 80 | 0.22 | 2080 ± 140 | > 10000 | CCCSc1c(C(=O)OCC)cnc2ccc(OCc3ccccc3)cc12 [Compound 5] | fold improvement in activity versus PfNMT ([4]; n-propyl thioether vs 2-cyanoethyl thioether): > 10 fold
1560 ± 220 | 670 ± 40 | 1.42 | 440 ± 50 | 4230 ± 530 | CCOC(=O)c1cnc2ccc(OCc3ccccc3)cc2c1SCC [Compound 7] | –
– | 5900 ± 600 | 0.69 | 4140 ± 410 | – | CCOC(=O)c1cnc2ccc(OCc3ccccc3)cc2c1SC [Compound 8] | –
> 10000 | > 10000 | 1.57 | 4190 ± 550 | > 10000 | CCSc1c(CO)cnc2ccc(OCc3ccccc3)cc12 [Compound 11] | –
> 10000 | 2690 ± 510 | 0.72 | 2920 ± 150 | > 10000 | CCOCc1cnc2ccc(OCc3ccccc3)cc2c1SCC [Compound 12] | –
1050 ± 115 | 960 ± 110 | 2.46 | 340 ± 50 | > 10000 | CCNC(=O)c1cnc2ccc(OCc3ccccc3)cc2c1SCC [Compound 13] | selectivity versus HsNMT1 ([3]; relative to PvNMT): 3 fold; selectivity versus HsNMT2 ([6]; relative to PvNMT): 30 fold
1020 ± 130 | 940 ± 90 | 1.80 | 410 ± 60 | 3530 ± 400 | CCSc1c(C(=O)N(CC)CC)cnc2ccc(OCc3ccccc3)cc12 [Compound 14] | –
> 10000 | 8000 ± 3980 | 2.36 | 2840 ± 380 | > 10000 | CCSc1c(C(=O)NCCO)cnc2ccc(OCc3ccccc3)cc12 [Compound 18] | –
